Columns and labels:
[1] = system: Mapkap1 and Fgd4 loci in striatum from R6/2 mouse; test: repeat-tract lengths of non-expanded loci in R6/2 striatum; assay type: in vivo; settings: four injections, both sides of striatum
mouse striatum = test: histological study of mouse striatum, H&E staining; assay type: in vivo; settings: NA in saline injected into striatum
[2] = system: long (CTG)20 slip-outs from (CAG)30●(CTG)50; test: band-shift NA-DNA binding, long (CTG)20 slip-out; parameters: species or system human; settings: NA 0.15-50 μM, 4% polyacrylamide gel
Excerpt: FIG. 2 are the results of experiments showing that NA binds to long CAG slip-outs. […] The (CAG)n DNA sequence (left) can fold into an hairpin structure involving mismatched A-A pair flanking C-G base pairs (middle). NA molecules can intercalate into the DNA helix, with the 2-amino-1,8-naphthyridine moiety (in red) hydrogen bonding to guanine and 8-azaquinolone moiety (in blue) hydrogen bonding to adenine. […] Long slip-outs extruded as a single slip-out from a fully base-paired backbone of (CTG)n●(CAG)n, as described (Pearson et al., 2002, Nuc. Acids Res., 30:4534-47). DNAs were mixed with increasing concentrations of NA (0.15 μM, 0.75 μM, 7.5 μM and 50 μM) and resolved on 4% polyacrylamide gels. All lanes are from the same gel, and they were separated for clarity. NA-DNA complexes are shown by brackets, free DNA is indicated by arrowheads. […] The relative migration was measured for the linear and the three slip-outs substrates as the ratio of the migration distance of each NA-DNA complex to the migration distance of the free DNA. The migration distance was measured from the well to a consistent center point of each band. […]

[3] = system: Huntington's disease R6/2 transgenic mice, striatum; test: stereotaxic intra-striatal injections into R6/2 mice, CAG length Genescan analysis and instability index; assay type: in vivo, mouse
Description: This calculation corrects background using a relative height threshold and normalizes data efficiently, generating an “instability index” that represents the mean CAG length change from the main allele per cell in a population of cells: greater indices reflect greater expansions, lower indices-lower expansions.
Mouse handling and experimental procedures were conducted in accordance with the Osaka University guidelines for the welfare of animals. A single drug application involved six separate stereotactic injections, three injections of drug or saline into three different striatal regions of either the left or right striatum, respectively (outlined in FIG. 24). Under sterile conditions, 6-week-old R6/2 mice were anesthetized with 50 mg/kg pentobarbital sodium, and stereotaxically injected with 5 μl of saline (right side) or 500 μM NA dissolved in saline (left side) into three different sites of the striatum. The mice received injections once or twice bi-weekly, or weekly for 4 consecutive weeks. Stereotaxic injections were delivered to three sites within the striatum with the following coordinates: (anterior-posterior (AP)=0.0 mm, medial-lateral (ML)=1.5 mm from bregma, dorsal-ventral (DV)=2.5 mm below the dural surface; AP=1.0 mm, ML=1.5 mm, DV=2.5 mm; and AP=0.5 mm, ML=1.5 mm, DV=2.5 mm), using a 10-μl Hamilton microsyringe at a rate of 0.5 μL/min. Refer to FIG. 24 outlining dosing regimen. […] The control of our NA treatment is therefore the contralateral side of the striatum of each mouse. Both right and left striatum were assessed for repeat length at the HD CAG transgene and at endogenous, long CAG tracts. For the mice treated four times, DNAs from the tail prior to and following NA administration, as well as left and right frontal cortex and left and right cerebellum were harvested.
At 4 weeks after the first injection, DNA was isolated from mouse brain tissue as previously described (Nakamori et al. 2009, Neuromuscul. Disord., 19:759-62). PCR was performed as described previously (Tome et al., 2013, PLoS Genet., 9:e1003280), and PCR products were sized on an ABI310 Gene Analyser using […] 3.1 software (Life Technologies).
The procedure for instability index calculation was done as previously described (Lee et al., 2010, BMC Syst. Biol., 4:29) and is illustrated and outlined in FIG. 27A.

naphthyridine-azaquinolone
length variation at Mapkap1 and Fgd4 loci [1]: Length variation was not observed
brain morphology (mouse striatum): did not alter brain morphology
NA binding (band-shift) [2]: not bound
instability index of striatum ([3]; 1, 2 and 4 administrations): progressively reduced
effect on expanded repeat relative to saline-injected contralateral striatum ([3]; 6-week-old R6/2 mice, repeated intra-striatal injections over four weeks): led to seeming contractions of the expanded repeat
extrapolated repeat contraction in an HD-affected human ([3]; extrapolation from mice, treatments spanning one year): 5-25 repeats
difference of main peak CAG lengths saline- versus NA-treated versus tail ([3]; four injections, 500 μM NA intra-striatal): 4-7 CAG units
CAG length heterogeneity in cerebral cortex and cerebellum (non-injected tissues) ([3]; intra-striatal injections, left versus right side): identical patterns of CAG length heterogeneity in the right and left sides
rate of contractions in striatal neurons ([3]; mice with about 150 CAG repeats, four-week period of NA treatment, 500 μM intra-striatal): ~0.5 repeats lost/week

— patent US11672786B2, “Methods of treating diseases associated with repeat instability” (The Hospital for Sick Children, priority 2016, dated 2023)
